T/C data for 21 compounds are collected here from PubChem BioAssay AID256 (DTP/NCI, 2004).

For the assay, the system named is CD2F1 mice, L1210 leukemia ip, survival T/C. The experiment in a line: NCI In Vivo Anticancer Drug Screen. Data for tumor model L1210 Leukemia (intraperitoneal) in CD2F1 (CDF1) mice. The note with it: higher = longer survival. The method in brief: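 Compound-dosed mice with transplantable tumor versus matched vehicle controls; endpoint ratio T/C reported.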
Where [1] appears, read: endpoint: mean survival time, dose: 100.0 mg/kg/injection, schedule: Q01DX009 (ip), vehicle: saline with Tween-80.
The mark [2] stands for this setting: endpoint: mean survival time, dose: 200.0 mg/kg/injection, schedule: Q01DX009 (ip), vehicle: saline with Tween-80.
Setting [3] is: endpoint: mean survival time, dose: 400.0 mg/kg/injection, schedule: Q01DX009 (ip), vehicle: saline with Tween-80.
The mark [4] stands for this setting: endpoint: mean survival time, dose: 200.0 mg/kg/injection, schedule: Q01DX009 (ip), vehicle: other.
Setting [5] is: endpoint: mean survival time, dose: 100.0 mg/kg/injection, schedule: Q04DX002 (ip), vehicle: saline with Tween-80.
Where [6] appears, read: endpoint: mean survival time, dose: 200.0 mg/kg/injection, schedule: Q04DX002 (ip), vehicle: saline with Tween-80.
Setting [7] is: endpoint: mean survival time, dose: 400.0 mg/kg/injection, schedule: Q04DX002 (ip), vehicle: saline with Tween-80.
[8] abbreviates: endpoint: mean survival time, dose: 100.0 mg/kg/injection, schedule: Q04DX003 (ip), vehicle: saline with Tween-80.
The mark [9] stands for this setting: endpoint: mean survival time, dose: 200.0 mg/kg/injection, schedule: Q04DX003 (ip), vehicle: saline with Tween-80.
Where [10] appears, read: endpoint: mean survival time, dose: 400.0 mg/kg/injection, schedule: Q04DX003 (ip), vehicle: saline with Tween-80.

Toxic doses and inconclusive results are not listed.

Turning to `COc1ccc(C(C#N)Nc2ccccc2)cc1` (centres undefined), the T/C under setting [1] is 106 % of control; the T/C (endpoint: mean survival time, dose: 100.0 mg/kg/injection, schedule: Q04DX003 (ip), vehicle: saline sonified) was 97 % of control; the T/C under setting [2] is 104 % of control; the T/C (endpoint: mean survival time, dose: 200.0 mg/kg/injection, schedule: Q04DX003 (ip), vehicle: saline sonified) is 89 % of control; the T/C under setting [3] was 103 % of control; the T/C (endpoint: mean survival time, dose: 400.0 mg/kg/injection, schedule: Q04DX003 (ip), vehicle: saline sonified) is 103 % of control.

Regarding `CCOC(=O)Nc1ccc(F)cc1`, the T/C (endpoint: mean survival time, dose: 100.0 mg/kg/injection, schedule: Q01DX009 (ip), vehicle: other) is 98 % of control; the T/C under setting [4] was 98 % of control; the T/C (endpoint: mean survival time, dose: 400.0 mg/kg/injection, schedule: Q01DX009 (ip), vehicle: other) was 107 % of control.

In the case of `CC(=O)Nc1ccccc1C(C)=O`, the T/C runs as follows: under setting [1], 110 % of control; under setting [2], 109 % of control.

As for `CCOC(=O)C(Cc1ccccc1OC)P(=O)(OCC)OCC` (centres undefined), the T/C reads like this: (endpoint: mean survival time, dose: 75.0 mg/kg/injection, schedule: Q01DX001 (ip), vehicle: saline) 100 % of control; (endpoint: mean survival time, dose: 150.0 mg/kg/injection, schedule: Q01DX001 (ip), vehicle: saline) 94 % of control; (endpoint: mean survival time, dose: 300.0 mg/kg/injection, schedule: Q01DX001 (ip), vehicle: saline) 96 % of control.

As to `CC1=C(CCC(=O)O)C(=O)C(CCC(=O)O)C(C)(C)C1` (centres undefined), the T/C was 96 % of control under setting [5], 100 % of control under setting [6] and 100 % of control under setting [7].

On to `N#CSCc1cc(Cl)c(CSC#N)cc1Cl`, for which the T/C (endpoint: mean survival time, dose: 75.0 mg/kg/injection, schedule: Q04DX003 (ip), vehicle: saline) is 102 % of control; the T/C (endpoint: mean survival time, dose: 150.0 mg/kg/injection, schedule: Q04DX003 (ip), vehicle: saline) was 98 % of control; the T/C (endpoint: mean survival time, dose: 300.0 mg/kg/injection, schedule: Q04DX003 (ip), vehicle: saline) is 102 % of control.

Take `CCCn1c(O)c(C=N)c(=O)[nH]c1=O`: the T/C by setting is: under setting [1], 101 % of control; under setting [8], 91 % of control; under setting [2], 111 % of control; under setting [9], 92 % of control; under setting [10], 94 % of control.

For `COc1cccc(C2=CCCCCC2)c1OC`, the T/C reads like this: under setting [8], 98 % of control; under setting [9], 101 % of control; under setting [10], 102 % of control.

As to `Nc1ncnc2c1ncn2[C@@H](C=O)O[C@@H](C=O)CO`, the T/C (endpoint: mean survival time, dose: 3.12 mg/kg/injection, schedule: Q01DX009 (ip), vehicle: saline with Tween-80) was 164 % of control; the T/C (endpoint: mean survival time, dose: 3.13 mg/kg/injection, schedule: Q01DX005 (ip), vehicle: saline with Tween-80) is 152 % of control; the T/C (endpoint: mean survival time, dose: 6.25 mg/kg/injection, schedule: Q01DX005 (ip), vehicle: saline with Tween-80) was 180 % of control; the T/C (endpoint: mean survival time, dose: 6.25 mg/kg/injection, schedule: Q01DX009 (ip), vehicle: saline with Tween-80) was 176 % of control; the T/C (endpoint: mean survival time, dose: 12.5 mg/kg/injection, schedule: Q01DX005 (ip), vehicle: other) was 165 % of control; the T/C (endpoint: mean survival time, dose: 12.5 mg/kg/injection, schedule: Q01DX005 (ip), vehicle: saline with Tween-80) was 153 % of control. The T/C is 185 % of control (endpoint: mean survival time, dose: 12.5 mg/kg/injection, schedule: Q01DX009 (ip), vehicle: saline with Tween-80); 172 % of control (endpoint: mean survival time, dose: 25.0 mg/kg/injection, schedule: Q01DX005 (ip), vehicle: other); 89 % of control (endpoint: mean survival time, dose: 25.0 mg/kg/injection, schedule: Q01DX009 (ip), vehicle: saline with Tween-80).

Consider `O=C(O)C1C2C=CC3(O2)C(=O)N(Cc2ccccc2)C(=O)C13` (centres undefined), for which the T/C under setting [5] is 95 % of control, the T/C under setting [6] is 103 % of control and the T/C under setting [7] is 98 % of control.

For the compound `CC(=O)OCC(C)CCC(=O)C(C)C1C(=O)CC2C3CC=C4CC(OC(C)=O)CCC4(C)C3CCC21C` (centres undefined), the T/C is 100 % of control under setting [1], 97 % of control under setting [2] and 91 % of control under setting [3].

As for `O=[N+]([O-])O.[Ho]`, the T/C (endpoint: mean survival time, dose: 100.0 mg/kg/injection, schedule: Q01DX009 (ip), vehicle: saline) was 94 % of control.

Regarding `C[Si](C)(C)OC1CC(=O)OC1n1cc(F)c(=O)[nH]c1=O` (centres undefined), the T/C is 103 % of control (endpoint: median survival time, dose: 12.5 mg/kg/injection, schedule: Q01DX005 (ip), vehicle: saline); 107 % of control (endpoint: median survival time, dose: 25.0 mg/kg/injection, schedule: Q01DX005 (ip), vehicle: saline); 113 % of control (endpoint: median survival time, dose: 50.0 mg/kg/injection, schedule: Q01DX005 (ip), vehicle: saline); 116 % of control (endpoint: median survival time, dose: 100.0 mg/kg/injection, schedule: Q01DX005 (ip), vehicle: saline).

For `CC(O)CNCCNC(=O)CNC(=O)C=[N+]=[N-]` (centres undefined), the T/C is, setting by setting: under setting [4], 108 % of control; (endpoint: mean survival time, dose: 800.0 mg/kg/injection, schedule: Q01DX009 (ip), vehicle: other) 155 % of control.

For `O=C(c1ccc(F)cc1)c1ccc([N+](=O)[O-])cc1`, the T/C by setting is: under setting [1], 103 % of control; under setting [2], 102 % of control; under setting [3], 97 % of control.

As to `COC(C(=O)C(O)C(C)O)C1Cc2cc3cc(OC4CC(OC5CC(O)C(O)C(C)O5)C(O)C(C)O4)c(C)c(O)c3c(O)c2C(=O)C1OC1CC(OC2CC(O)C(OC3CC(C)(O)C(O)C(C)O3)C(C)O2)C(O)C(C)O1` (centres undefined), the T/C by setting is: (endpoint: mean survival time, dose: 0.13 mg/kg/injection, schedule: Q01DX009 (ip), vehicle: saline) 101 % of control; (endpoint: mean survival time, dose: 0.25 mg/kg/injection, schedule: Q01DX009 (ip), vehicle: saline) 97 % of control; (endpoint: mean survival time, dose: 0.5 mg/kg/injection, schedule: Q01DX009 (ip), vehicle: saline) 101 % of control; (endpoint: mean survival time, dose: 1.0 mg/kg/injection, schedule: Q01DX009 (ip), vehicle: saline) 95 % of control.

`Nc1c2c(nn1-c1ccccc1)C(=O)N(CCc1ccccc1)C2`: the T/C under setting [10] is 90 % of control.

Consider `COC(=O)c1cccn1C(=O)c1ccc(C)c(OCc2ccccc2)c1[N+](=O)[O-]`, for which the T/C is 86 % of control under setting [5], 93 % of control under setting [6] and 93 % of control under setting [7].

Take `Cc1cc(CC(Cl)(C(F)(F)F)C(F)(F)F)cc(CC(Cl)(C(F)(F)F)C(F)(F)F)n1`: the T/C (endpoint: mean survival time, dose: 12.5 mg/kg/injection, schedule: Q04DX003 (ip), vehicle: saline with Tween-80) was 97 % of control; the T/C (endpoint: mean survival time, dose: 25.0 mg/kg/injection, schedule: Q04DX003 (ip), vehicle: saline with Tween-80) is 97 % of control; the T/C (endpoint: mean survival time, dose: 50.0 mg/kg/injection, schedule: Q04DX003 (ip), vehicle: saline with Tween-80) was 97 % of control.

For `Cc1ccc(S(=O)(=O)OC2CC3CC2C2C4C=CC(C4)C32)cc1` (centres undefined), the T/C is 101 % of control (endpoint: mean survival time, dose: 50.0 mg/kg/injection, schedule: Q01DX009 (ip), vehicle: saline with Tween-80); 93 % of control under setting [1]; 101 % of control under setting [2].

In the case of `Cc1csc2nc(-c3ccccc3)[nH]c(=S)c12`, the T/C is 90 % of control under setting [8] and 87 % of control under setting [10].
